Assay results reported in the NIST ThermoML archive (doi:10.1021/je050498q).

Experiment: refractive index (Na D-line) (dimensionless); wn = mass fraction of the nth substance listed
Conditions: 101 kPa, Liquid

O=C([O-])[C@H](O)[C@@H](O)C(=O)[O-].[Na+].[Na+] [disodium L-tartrate] + O
refractive index
Conditions | 298.15 K | 308.15 K | 318.15 K
w1 = 0.0099 | 1.3343 | 1.3331 | 1.3318
w1 = 0.0192 | 1.336 | 1.3346 | 1.3335
w1 = 0.0282 | 1.3373 | 1.3363 | 1.3351
w1 = 0.0371 | 1.3389 | 1.3378 | 1.3367
w1 = 0.046 | 1.3405 | 1.3393 | 1.3381
w1 = 0.0547 | 1.3418 | 1.3408 | 1.3396
w1 = 0.0625 | 1.3432 | 1.3421 | 1.341
w1 = 0.0714 | 1.3447 | 1.3435 | 1.3425
w1 = 0.0793 | 1.346 | 1.3449 | 1.3439
w1 = 0.0872 | 1.3475 | 1.3462 | 1.3452
w1 = 0.0948 | 1.3486 | 1.3475 | 1.3464
w1 = 0.1026 | 1.3502 | 1.3488 | 1.3479
w1 = 0.1098 | 1.3511 | 1.35 | 1.349
w1 = 0.1169 | 1.3526 | 1.3512 | 1.3502
w1 = 0.1223 | 1.3535 | 1.3523 | 1.3513
w1 = 0.1314 | 1.3551 | 1.3537 | 1.3526
w1 = 0.1361 | 1.3557 | 1.3545 | 1.3536
w1 = 0.1437 | 1.3572 | 1.356 | 1.3548
w1 = 0.1514 | 1.3584 | 1.3572 | 1.3562
w1 = 0.1577 | 1.3594 | 1.3582 | 1.3573
w1 = 0.1646 | 1.3607 | 1.3596 | 1.3587
w1 = 0.1697 | 1.3616 | 1.3606 | 1.3595
w1 = 0.1769 | 1.363 | 1.3617 | 1.3607
w1 = 0.1825 | 1.3639 | 1.3627 | 1.3616
w1 = 0.1886 | 1.3649 | 1.3637 | 1.3627
w1 = 0.1941 | 1.366 | 1.3646 | 1.3636
w1 = 0.1996 | 1.3668 | 1.3655 | 1.3644
w1 = 0.2048 | 1.3677 | 1.3664 | 1.3654
w1 = 0.2116 | 1.3689 | 1.3675 | 1.3666
w1 = 0.2167 | 1.3697 | 1.3685 | 1.3675
w1 = 0.2221 | 1.3707 | 1.3696 | 1.3684
w1 = 0.2281 | 1.3719 | 1.3707 | 1.3695
w1 = 0.2328 | 1.3728 | 1.3715 | 1.3703
w1 = 0.243 | 1.3744 | 1.3731 | 1.372
w1 = 0.2493 | 1.3755 | 1.3744 | 1.3732
w1 = 0.2577 | 1.377 | 1.3759 | 1.3749
w1 = 0.2622 | 1.3778 | 1.3765 | 1.3757
w1 = 0.2681 | 1.379 | 1.3777 | 1.3765
w1 = 0.2757 | 1.3802 | 1.3791 | 1.3778
w1 = 0.2859 | 1.3821 | 1.3809 | 1.3798
w1 = 0.2979 | 1.384 | 1.3829 | 1.3819
w1 = 0.3085 | 1.3861 | 1.3848 | 1.3841
